# Laboratory results taken from ChEMBL document CHEMBL1201862, “PubChem BioAssay data set” (2004).
#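 Briefly, cells in 96-well plates were exposed to five compound concentrations for 48 h, and endpoints were estimated by linear interpolation. Abbreviation: GI50, concentration required for 50% inhibition of growth.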 Active and inactive are the calls of the source. No stated cut-off is given here; in the data, active = GI50 up to about 1.1 µM and inactive = higher.
# How the values were obtained:
# Assay in all cases: NCI anticancer screen, dose series, 48 h
# 786-0 = tested on: 786-0
# CCRF-CEM = tested on: CCRF-CEM
# DU-145 = tested on: DU-145
# HCT-15 = tested on: HCT-15
# HOP-92 = tested on: HOP-92
# LOX IMVI = tested on: LOX IMVI
# MCF7 = tested on: MCF7
# MDA-MB-231 = tested on: MDA-MB-231
# MDA-N = tested on: MDA-N
# NCI/ADR-RES = tested on: NCI/ADR-RES
# OVCAR-3 = tested on: OVCAR-3
# OVCAR-4 = tested on: OVCAR-4
# SF-539 = tested on: SF-539
# SK-MEL-28 = tested on: SK-MEL-28
# SK-OV-3 = tested on: SK-OV-3
# SN12C = tested on: SN12C
# SNB-19 = tested on: SNB-19
# SNB-75 = tested on: SNB-75
# SW-620 = tested on: SW-620
# T47D = tested on: T47D
Compound,GI50 (786-0),GI50 (CCRF-CEM),GI50 (DU-145),GI50 (HCT-15) [µM],GI50 (HOP-92),GI50 (LOX IMVI),GI50 (MCF7),GI50 (MDA-MB-231),GI50 (MDA-N),GI50 (NCI/ADR-RES),GI50 (OVCAR-3),GI50 (OVCAR-4),GI50 (SF-539),GI50 (SK-MEL-28),GI50 (SK-OV-3),GI50 (SN12C),GI50 (SNB-19),GI50 (SNB-75),GI50 (SW-620),GI50 (T47D)
CC[C@]12C=CCN3CC[C@@]4(c5cc(N=O)c(OC)cc5N(C)[C@H]4[C@@](O)(C(=O)OC)[C@@H]1OC(C)=O)[C@@H]32,42.9 µM (inactive),21.6 µM (inactive),> 100 µM (inactive),86.3,> 100 µM (inactive),34.1 µM (inactive),24.5 µM (inactive),39.4 µM (inactive),20.1 µM (inactive),> 100 µM (inactive),48 µM (inactive),> 100 µM (inactive),27.6 µM (inactive),> 100 µM (inactive),> 100 µM (inactive),34.3 µM (inactive),> 100 µM (inactive),57.7 µM (inactive),31.6 µM (inactive),35 µM (inactive)
COc1c(O)c(O)c2c(c1O)C(=O)c1cc(C)cc(O)c1C2=O,36.7 µM (inactive),33.3 µM (inactive),77.1 µM (inactive),14.1,92 µM (inactive),24.1 µM (inactive),44.8 µM (inactive),12.2 µM (inactive),53 µM (inactive),16.7 µM (inactive),26.4 µM (inactive),14.4 µM (inactive),> 66.5 µM (inactive),98.6 µM (inactive),36.8 µM (inactive),50.7 µM (inactive),65.3 µM (inactive),2.97 µM (inactive),40 µM (inactive),24.8 µM (inactive)
C#C[C@]1(O)CC[C@H]2[C@@H]3CCC4=C/C(=N\OCCN5CCCC5)CC[C@]4(C)[C@H]3CC[C@@]21C,7.11 µM (inactive),14.6 µM (inactive),19 µM (inactive),13.2,29.1 µM (inactive),11.5 µM (inactive),4.72 µM (inactive),19.2 µM (inactive),3.25 µM (inactive),9.95 µM (inactive),10.9 µM (inactive),20.6 µM (inactive),7.46 µM (inactive),14.9 µM (inactive),19.5 µM (inactive),16.7 µM (inactive),15.3 µM (inactive),10.8 µM (inactive),13.5 µM (inactive),16.1 µM (inactive)
CCN(CC)c1c(N(CC)CC)c(=O)c1=O,5.35 µM (inactive),3.53 µM (inactive),9.31 µM (inactive),3.67,3.94 µM (inactive),11.8 µM (inactive),11.2 µM (inactive),7.55 µM (inactive),16.3 µM (inactive),24.4 µM (inactive),9.71 µM (inactive),18.9 µM (inactive),8.05 µM (inactive),17.4 µM (inactive),> 100 µM (inactive),9.1 µM (inactive),> 63.8 µM (inactive),30.3 µM (inactive),4.16 µM (inactive),3.18 µM (inactive)
CC1(C)C=C(S(=O)(=O)c2ccccc2)Oc2ccccc2O1,44.6 µM (inactive),40.1 µM (inactive),91 µM (inactive),33.3,24.5 µM (inactive),16.3 µM (inactive),43.5 µM (inactive),> 100 µM (inactive),35.7 µM (inactive),52.1 µM (inactive),50.4 µM (inactive),37.4 µM (inactive),82.8 µM (inactive),41.7 µM (inactive),60.3 µM (inactive),64.9 µM (inactive),62.5 µM (inactive),16.7 µM (inactive),75.9 µM (inactive),19.8 µM (inactive)
CN(C)CC1CCCc2ccccc2C1=O (stereo not given),1.47 µM (inactive),0.107 µM (active),6.1 µM (inactive),1.79,16 µM (inactive),2.16 µM (inactive),0.231 µM (active),5.07 µM (inactive),1.58 µM (inactive),3.32 µM (inactive),1.82 µM (inactive),0.839 µM (active),4.79 µM (inactive),6.03 µM (inactive),18.3 µM (inactive),7.4 µM (inactive),13 µM (inactive),41.8 µM (inactive),0.54 µM (active),7.73 µM (inactive)
CS(=O)(=O)OC1CCN(C2(c3cccc(O)c3)CCCCC2)CC1,27.4 µM (inactive),22.6 µM (inactive),82.6 µM (inactive),79.1,51.3 µM (inactive),21.8 µM (inactive),31.8 µM (inactive),73.5 µM (inactive),30.5 µM (inactive),48.1 µM (inactive),> 100 µM (inactive),43 µM (inactive),27.4 µM (inactive),60.4 µM (inactive),37 µM (inactive),32.9 µM (inactive),> 100 µM (inactive),> 100 µM (inactive),29.9 µM (inactive),70.6 µM (inactive)
COc1cccc(C(=O)C(O)c2cccc(OC)c2OC)c1OC (stereo not given),> 100 µM (inactive),> 100 µM (inactive),> 100 µM (inactive),> 100,> 100 µM (inactive),> 100 µM (inactive),> 100 µM (inactive),> 100 µM (inactive),> 100 µM (inactive),> 100 µM (inactive),> 100 µM (inactive),> 100 µM (inactive),> 100 µM (inactive),> 100 µM (inactive),> 100 µM (inactive),> 100 µM (inactive),> 100 µM (inactive),> 100 µM (inactive),> 100 µM (inactive),> 100 µM (inactive)
COc1cc2c(c(O)c1C)C(=O)C(Cl)=CC2=O,11.6 µM (inactive),0.918 µM (active),6.46 µM (inactive),11.5,4.71 µM (inactive),9.53 µM (inactive),6.85 µM (inactive),12 µM (inactive),4.07 µM (inactive),22.6 µM (inactive),9.91 µM (inactive),11.8 µM (inactive),18.1 µM (inactive),18.8 µM (inactive),> 53.1 µM (inactive),12.4 µM (inactive),42.3 µM (inactive),16.4 µM (inactive),3.06 µM (inactive),2.17 µM (inactive)
C=C1C(NC)CCC23CC24CCC2(C)C(C(C)=O)C(O)CC2(C)C4CCC13 (stereo not given),80.5 µM (inactive),54.8 µM (inactive),> 100 µM (inactive),> 100,> 100 µM (inactive),63.7 µM (inactive),70.5 µM (inactive),> 100 µM (inactive),63.7 µM (inactive),> 100 µM (inactive),> 100 µM (inactive),> 100 µM (inactive),59 µM (inactive),> 100 µM (inactive),59.7 µM (inactive),20.4 µM (inactive),> 100 µM (inactive),49.4 µM (inactive),> 100 µM (inactive),> 100 µM (inactive)
